Laboratory results taken from EP0917465B1, “ANTIMALARIAL AND ANTI-BABESIOSIS AGENTS AND PHARMACEUTICAL COMPOSITIONS CONTAINING THE SAME AGENTS” (priority 1996, dated 1998).

How the values were obtained:
[1] = tested on: Plasmodium falciparum; assay: In vitro antimalarial activity, (3H) hypoxanthine incorporation in infected human erythrocytes (Desjardins test); format: cell-based; conditions: Plasmodium falciparum, Erythrocyte, concentration inhibiting in vitro parasite growth by 50 %; human erythrocytes infected with Plasmodium falciparum; 24 h contact, test lasts 60 to 70 h; read-out: IC50 exprimée en micromoles
Excerpt: L'activité antipaludéenne des dérivés selon les exemples précédents est testée sur l'humain infesté par Plasmodium falciparum. Le produit à tester est mis en contact avec les érythrocytes humains infectés pendant 24 heures. Un précurseur radioactif d'acides nucléiques l'Hypoxanthine (^3H) est ensuite ajouté. Le précurseur ne s'incorpore que dans les cellules infectées par un parasite en croissance, c'est à dire dans les cellules que la drogue n'aura pas affectées.
L'aptitude ou non à incorporer le précurseur reflète donc la viabilité des cellules impaludées. La durée des tests est de 60 à 70 heures ( test de DESJARDINS R.E. , CANFIELD C.J., HATNES J.D. et CHULAY J.D., Antimicrob. Agents Chemother. 1979, 16, p 710-718 ). Les résultats sont consignés dans le tableau I ci-après, sous forme de IC50 (ou DE50), soit la concentration de produit dans le milieu expérimental capable d'inhiber in vitro la croissance du parasite d'une valeur de 50%.

[2] = Therapeutic index in infected mice: 4-day Peters test activity versus semi-chronic toxicity (DL 50); format: in vivo, souris Swiss mâles; conditions: mouse, in vivo, ratio of activity to toxicity under identical conditions, intraperitoneal or subcutaneous, twice a day for 4 days, read-out: Index thérapeutique
Excerpt: Afin d'évaluer l'index thérapeutique des divers produits, on a mesuré l'activité de ceux-ci dans un test in vivo et comparé à la toxicité aiguë chez l'animal . Cette activité est mesurée suivant le test décrit par PETERS W. ( Chemotherapy and Drug résistance in Malaria, 1970). Un composé est administré pendant quatre jours consécutifs à des souris préalablement impaludées par Plasmodium vinckei, petteri, ou chabaudi, ledit composé étant dissous dans une solution de NaCI à 0.9 %. Les préparations sont ainsi administrées par voie intrapéritonéale ou par voie sous-cutanée à des souris Swiss mâles infectées par voie IV, avec Plasmodium petterei ou Plasmodium chabaudi (10^6 cellules infectées ). Le composé est administré deux fois par jour pendant 4 jours consécutifs, la première injection étant pratiquée 2 heures après l'infestation et la deuxième, 10 heures après. La parasitémie est déterminée par un frottis, le jour suivant la fin du traitement. La toxicité est mesurée in vivo selon la même méthode, les animaux ayant reçu dans les conditions d'administration ci-dessus, 2 injections par jour pendant 4 jours ( toxicité semi chronique). Les résultats sont exprimés sous forme de DL 50, soit la dose ayant entraîné la mort de 50% des animaux.
Les résultats des essais sont résumés dans le tableau I ci-après sous forme d'index thérapeutique, soit le rapport de l'activité à la toxicité mésurées dans des conditions identiques comme décrit ci-dessus.

[3] = tested on: Babesia Bovis, Babesia Canis; assay: In vitro anti-Babesia activity, (3H) hypoxanthine incorporation; format: cell-based; conditions: class of ID 50 for (3H) hypoxanthine incorporation; read-out: Activité/ Babesia à 10 millimole
Excerpt: Le procédé de criblage d'activité anti-malaria, basé sur l'incorporation de l'(^3H) Hypoxanthine par le parasite, est utilisé pour tester l'activité anti-métabolique de tels composés sur Babesia Bovis, Babesia Canis. Une relation étroite est trouvée entre le taux d'incorporation de (^3H) Hypoxanthine dans une mesure standard et le pourcentage de cellules parasitées, déterminé par examen microscopique. Cette activité métabolique est quantifiée et évaluée dans le tableau ci-dessous par la cotation +++ pour les molécules affichant dans le test une inhibition de 50 % de l'incorporation de (^3H) Hypoxanthine (ID 50), ces molécules étant à une concentration inférieure ou égale à 0,01 Micromolaire. La cotation est de ++ pour la même activité à une concentration de 0,01 à 0.1 micromolaire et enfin de + pour une concentration inférieure ou égale à 1 Micromolaire.

| SMILES | IC50 [1] [nM] | selectivity ratio [2] | IC50 [3] [nM] |
| --- | --- | --- | --- |
| C[N+]1(CCCCCCCCCCCCCCCC[N+]2(C)CCCC(CO)C2)CCCC(CO)C1 (stereo not drawn) [EXEMPLE 20, 1,1'-(1,16-hexadecanediyl) bis (1-methyl-3hydroxy methyl piperidinium) dibromure] | 0.3 | 17 | < 10 |
| C[N+]1(CCCCCCCCCCCCCCCC[N+]2(C)CCCC2CO)CCCC1CO (stereo not drawn) [EXEMPLE 18, 1,1'-(1, 16-hexadecanediyl) bis (2-hydroxymethyl-1-methylpyrrolidinium) dibromure] | 1 | 22 | < 10 |
